Assay [1] deals with CTGF & Cyr61 expression. Kind of assay: Real time RT-PCR of YAP-target genes CTGF and Cyr61 in GBM cells. The assay is classed as cell-based, human. The settings on record: LN229 and GBM39 cells, 18 h. Here is the method:
Levels of total YAP were determined via ELISA. […] Immunoprecipitates were immunoblotted for the indicated proteins. […] Cells were treated with the indicated concentrations of inhibitor for 18 h and mRNA extracted for real time RT-PCR analyses. Measurements were performed in quadruplicate and means and+S.D. are shown. […] Cells were treated with (+) or without (−) NSC682769 (100 nM, 18 h) and harvested and separated into cytoplasmic and nuclear cellular fractions. Cytoplasmic versus nuclear material was subsequently immunoblotted for the indicated proteins. […] Values in top right corner of panels correspond to the percentage of nuclear localized YAP. […]
Protein and mRNA analyses, immunoprecipitation, in vitro bead-coupled inhibitor binding assays and HPLC analyses. […] Antigen-antibody complexes were detected using appropriate horseradish peroxidase-conjugated secondary antibodies (GE Healthcare) and enhanced chemiluminescence (Amersham ECL Prime). […] For quantitative RT-PCR, extraction of RNA was performed using Trizol® (Life Technologies). Total RNA was then quantified and integrity assessed using an Agilent 2100 Bioanalyzer (Agilent Technology). […] SYBR® Green quantitative PCR (Millipore Sigma) was performed in triplicate in 96-well optical plates on an ABI Prism 7000 Sequence Detection System (Life Technologies) according to the manufacturer's instructions. […]
A general note: Quantitative PCR measures a nucleic acid by following its amplification.

Assay [2] concerns LN229 and GBM39 cells. Kind of assay: Boyden chamber migration towards vitronectin or fibronectin. The assay is classed as cell-based, human. Particulars: vitronectin or fibronectin versus BSA-coated chambers. An excerpt: Cells were layered in soft agar to evaluate anchorage-independent growth in the presence of the indicated concentrations of inhibitor and colonies counted following 14 days of growth. Representative crystal violet stained images are shown below. Data represent mean+S.D. of three independent experiments. […] Cells were placed in Boyden chambers and allowed to migrate towards BSA (white bars), vitronectin (light yellow bars), or fibronectin (dark yellow bars) (*, P<0.05; n=3). […] Representative crystal violet stained images are shown (200×). Data represent mean+S.D. of three independent experiments. […] Graphical data shown below represent mean+S.D. (late apoptosis; annexin V-positive, PI-positive) of three independent experiments.
Cell proliferation, clonogenic, migration, invasion and apoptosis assays. Cell proliferation was determined via Cell Titer-Glo® luminescent cell assays (Promega). Clonogenic assays were done by plating a total of 1,000 cells per well in 24-well plates in a total volume of 400 μL using a two-layered soft agar system as previously described (Masri J, et al. (2007) Cancer Res 67: 11712-11720). Cell migration assays were conducted using precoated modified Boyden chambers as previously described (Benavides-Serrato A, et al. (2017) PLoS One 12: e0176599). […]

As to `COc1ccc(-c2cc(-c3ccccc3)nc3c2CC(=O)Nc2ccccc2-3)cc1OC` [NSC682769], in assay [1], the “CTGF and Cyr61 transcripts” value was “downregulated”. Moreover, in assay [2], the Cell migration entry is on record as “inhibited the number of cells capable of migrating”.

Source of the values: patent US20240108634A1, “COMPOSITIONS AND METHODS FOR INHIBITING YAP” (The United States Government as represented by the …, priority 2021, published 2024).
